Columns and labels:
mouse P2X7 [1] = molecular target: T1, mouse P2X7 (Mus musculus, UniProt Q9Z1M0); experiment: Calcium influx (Fura-2/AM) inhibition assay, BzATP-activated, B16 cells; format: cell-based; conditions: Mouse isoform; for pKi: Cheng–Prusoff; for Ki: Cheng–Prusoff from pIC50 assuming competitive inhibition, BzATP 200 μM; for pIC50: P2X7-B16, [BzATP] 200 μM
T1 sequence (Q9Z1M0 1-595): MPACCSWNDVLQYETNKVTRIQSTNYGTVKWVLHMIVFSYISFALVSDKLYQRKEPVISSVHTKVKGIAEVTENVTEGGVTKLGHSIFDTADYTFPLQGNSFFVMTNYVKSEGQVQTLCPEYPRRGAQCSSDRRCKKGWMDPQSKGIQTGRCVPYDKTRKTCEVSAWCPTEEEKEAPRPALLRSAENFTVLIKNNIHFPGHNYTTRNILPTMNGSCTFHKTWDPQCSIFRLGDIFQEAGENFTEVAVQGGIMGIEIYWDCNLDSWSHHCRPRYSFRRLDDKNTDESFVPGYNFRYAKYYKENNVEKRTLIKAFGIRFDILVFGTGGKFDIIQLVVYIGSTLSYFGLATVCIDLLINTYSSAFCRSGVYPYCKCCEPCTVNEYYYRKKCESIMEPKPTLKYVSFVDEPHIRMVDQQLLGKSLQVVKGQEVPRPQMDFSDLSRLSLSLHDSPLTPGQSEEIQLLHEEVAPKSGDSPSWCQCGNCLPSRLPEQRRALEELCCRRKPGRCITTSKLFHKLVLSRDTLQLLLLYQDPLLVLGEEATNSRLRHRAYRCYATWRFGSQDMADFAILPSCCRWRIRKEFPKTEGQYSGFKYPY

rat P2X7 [2] = molecular target: T2, rat P2X7 (Rattus norvegicus, UniProt Q64663); experiment: Calcium influx (Fura-2/AM) inhibition assay, BzATP-activated; format: cell-based; conditions: Rat isoform
T2 construct: expressed in transfected cells
T2 sequence (Q64663 1-595): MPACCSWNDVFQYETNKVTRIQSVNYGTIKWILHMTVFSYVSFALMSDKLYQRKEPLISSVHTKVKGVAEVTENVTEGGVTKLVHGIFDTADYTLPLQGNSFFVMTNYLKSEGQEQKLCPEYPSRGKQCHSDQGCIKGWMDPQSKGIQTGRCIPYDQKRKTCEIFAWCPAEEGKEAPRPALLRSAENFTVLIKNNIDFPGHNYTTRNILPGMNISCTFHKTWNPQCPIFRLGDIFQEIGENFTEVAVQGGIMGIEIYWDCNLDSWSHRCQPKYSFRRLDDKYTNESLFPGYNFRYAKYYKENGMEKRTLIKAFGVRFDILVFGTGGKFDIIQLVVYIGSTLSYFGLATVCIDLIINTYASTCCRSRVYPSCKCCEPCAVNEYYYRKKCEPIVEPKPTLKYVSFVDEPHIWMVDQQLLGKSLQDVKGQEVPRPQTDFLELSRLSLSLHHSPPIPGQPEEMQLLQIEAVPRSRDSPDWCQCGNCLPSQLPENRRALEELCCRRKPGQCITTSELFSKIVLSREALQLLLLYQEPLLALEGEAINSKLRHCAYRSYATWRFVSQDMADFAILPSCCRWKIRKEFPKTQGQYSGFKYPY

mouse P2X7 [3] = molecular target: T1, mouse P2X7; parameters: method as in PMID 19558545; conditions: Mouse isoform, literature value from similar assay format; cited from earlier work
human P2X7 [4] = molecular target: T3, human P2X7 (Homo sapiens, UniProt Q99572); experiment: Calcium influx (Fura-2/AM) inhibition assay, BzATP-activated; format: cell-based; conditions: Human isoform
T3 construct: expressed in transfected cells
T3 sequence (Q99572 1-595): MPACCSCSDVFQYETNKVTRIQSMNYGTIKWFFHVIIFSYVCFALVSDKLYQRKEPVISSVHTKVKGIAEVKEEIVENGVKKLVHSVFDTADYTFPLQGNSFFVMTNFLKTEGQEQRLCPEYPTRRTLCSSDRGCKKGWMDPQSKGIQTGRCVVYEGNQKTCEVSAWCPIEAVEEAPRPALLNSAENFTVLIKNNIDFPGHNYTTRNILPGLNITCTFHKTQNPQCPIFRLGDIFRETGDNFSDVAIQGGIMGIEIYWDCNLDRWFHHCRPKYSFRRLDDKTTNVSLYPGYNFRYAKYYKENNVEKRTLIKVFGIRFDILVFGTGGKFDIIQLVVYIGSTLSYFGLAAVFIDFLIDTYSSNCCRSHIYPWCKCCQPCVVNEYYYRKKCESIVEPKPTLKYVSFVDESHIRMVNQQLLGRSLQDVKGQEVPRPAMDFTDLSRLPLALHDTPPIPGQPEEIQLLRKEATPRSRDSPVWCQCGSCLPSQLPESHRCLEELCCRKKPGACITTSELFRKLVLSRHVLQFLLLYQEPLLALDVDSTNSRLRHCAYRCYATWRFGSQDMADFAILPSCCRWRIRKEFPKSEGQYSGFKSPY

rat P2X7 [5] = molecular target: T2, rat P2X7; parameters: method as in PMID 11181928; conditions: YoPro dye uptake, P2X7-HEK293; cited from earlier work
human P2X7 [6] = molecular target: T3, human P2X7; parameters: method as in PMID 11181928; conditions: YoPro dye uptake, P2X7-HEK293; cited from earlier work
mouse P2X7 [7] = molecular target: T1, mouse P2X7; parameters: method as in PMID 11181928; conditions: YoPro dye uptake, P2X7-HEK293; cited from earlier work
[8] = Stability test in 0.05% DMSO by radio/UV-HPLC; format: physicochemical; conditions: 37 °C, 2 h
Experimental: The reaction vessel was heated at 160 °C for 15 min, cooled to 50 °C and the solvent was concentrated at 50 °C under a stream of nitrogen for 7–10 min. Next, the crude mixture was diluted in 2 mL water ensuring <15% acetonitrile was present and injected in an HPLC semi-prep C18 column to provide isolation of the pure product in >99% RCP and >300 GBq/μmol molar radioactivity. The product was diluted to 30–50 mL in water and passed through a light C18 Short Sep-Pak SPE cartridge (WAT023501) for concentration in 200–500 μL ethanol. The resulting product was obtained in high purity and 4.0% overall RCY in 3 h and 30 min from start of synthesis. Purity tests were performed with HPLC method B (Table 1).
Supp. […] UV_A: UV chromatogram; ChA: Channel A (Radiochromatogram); Cps: counts per second.

Sprague–Dawley rats = experiment: PET/CT imaging and biodistribution in LPS-treated and control rats; format: in vivo, rat
Experimental: Male Sprague–Dawley rats of 240–270 g were bought from Charles River Laboratories International, Inc., and used within 90 days. The animals were housed with a week of acclimatisation before procedures were done under pathogen-free conditions in a temperature- and humidity-controlled environment and given access to food and water ad libitum. All experiments were carried out in the Rayne Institute, St. Thomas’ Hospital, King’s College London, between 2015 and 2016 and according to the Animals Act 1986 and with the approval of the King’s College research ethics committee.
Twenty-four hours prior to scanning, all rats were pre-treated by an intraperitoneal injection of 0.5 mg/kg LPS from Escherichia coli (0111:B4 L2630, Sigma Aldrich) at 0.5 mg/mL or with 1 mL/kg sterile saline solution and weighed before the start of the PET imaging procedure. Then, the saline-dissolved reformulated radiotracer was injected under isoflurane anaesthesia in 0.2–5 MBq, corresponding to an administered dose of 0.5–16 ng/kg, and >300 GBq/μmol molar radioactivity via tail vein cannulation, followed by a 0.15 mL saline flush. Details on anaesthesia and PET/CT acquisition and analysis are reported in Additional file 1. Immediately after imaging, the animals were culled by terminal anaesthesia and cervical dislocation and dissected. Organs and body fluids were collected for gamma counting (LKB Wallac 1282) and biodistribution analysis.
Data are expressed as mean ± standard error mean (SEM) from three independent replicates, unless otherwise indicated. Statistical analysis of the %ID/g variation in the PET scans and biodistributions were performed with GraphPad Prism 5.0 (San Diego, USA) as a parametric two-way ANOVA test with Bonferroni post-test, while the mean longitudinal percentage injected dose per gram (%ID/g) and the post-LPS treatment weight variation were analysed with a Student’s t test. The asterisk indicates P < 0.01; **P < 0.005; ***P < 0.001. Where unspecified, no significance was found.
PET/CT scans were acquired with Nuclide^TM within the energy window of 400-600 keV, coincidence detection ratio 1-5 and voxel resolution of 0.30 x 0.30 x 0.30 mm^3. CT scanning was performed immediately before or after the PET scans with X-ray energy of 45 KVp, 360 projection and 0.25 x 0.25 x 0.21 mm^3 voxel size. The datasets were resolved by dynamic fine reconstructions with coincidence detection ratio 1-5 and decay correction to the time of injection. Binning was performed in incremental time units of 5 to 30 min size. All reconstructed datasets were analysed with VivoQuant 1.21 (InviCRO, LLC, Boston, USA). ROI activity quantification was corrected for background noise. Uptake was expressed as percent injected dose per gram of tissue (%ID/g), as calculated with reference to the injected activity dose at the time of injection and the ROI size in mm^3. The blood ROI was sampled from the coronary artery. All data are presented as mean ± SEM unless otherwise stated.
Immediately after imaging, the animals were culled by terminal anaesthesia and cervical dislocation. The animals were dissected and organs and body fluids were collected for gamma counting (LKB Wallac 1282) and weighed. An ^18F counts-to-becquerel standard curve was made so as to enable conversion between the two units. The radiotracer uptake in each organ was expressed as %ID/g, where %ID was the percent ratio of the measured organ radioactivity to the total administered dose. The latter was defined as the MBq injected to the animals, decay corrected to the start of counting.

N#CN=C(NCc1ccc(F)cc1)Nc1cccc2ncccc12 [EFB, 2-cyano-1-(4-fluorobenzyl)-3-(quinolin-5-yl)guanidine]
pKi (mouse P2X7 [1]): 6.26
Ki (mouse P2X7 [1]): 547 nM
pIC50 (mouse P2X7 [1]): 5.22
Ki (rat P2X7 [2]; Cheng–Prusoff from pIC50 assuming competitive inhibition, BzATP 100 μM): 36.1 nM
IC50 (rat P2X7 [2]; P2X7-HEK293, [BzATP] 100 μM): 7240 nM

COc1ccc(CC(=O)NC(NC(=NC#N)Nc2cccc3ncccc23)C(C)(C)C)cc1OC (stereo not shown) [A-740003, N-(1-{[(Cyanoimino)(5-quinolinylamino)methyl]amino}-2,2-dimethylpropyl)-2-(3,4-dimethoxyphenyl)acetamide, reference compound]
Lit. pIC50 (mouse P2X7 [3]): 6.57 [34]
pKi (mouse P2X7 [1]): 7.01
Ki (mouse P2X7 [1]): 97.2 nM
pIC50 (mouse P2X7 [1]): 5.97
Ki (human P2X7 [4]; Cheng–Prusoff): 0.105 nM
IC50 (human P2X7 [4]; P2X7-HEK293, [BzATP] 100 μM): 66.1 nM

2′(3′)-O-(4-Benzoylbenzoyl)adenosine 5′-triphosphate triethylammonium salt [BzATP]
pEC50 (rat P2X7 [5]): 6.3 ± 0.13
pEC50 (human P2X7 [6]): 6.8 ± 0.14
pEC50 (mouse P2X7 [7]): 4.7 ± 0.07

N#C/N=C(/NCc1ccc([18F])cc1)Nc1cccc2ncccc12 [[^18F]EFB, 2-cyano-1-(4-[^18F]fluorobenzyl)-3-(quinolin-5-yl)guanidine]
Stability [8]: no radioactive by-product formation
blood concentration of the tracer, LPS vs control (Sprague–Dawley rats; 90 min biodistribution): substantially unvaried
tracer uptake in upper digestive organs (stomach, pancreas), LPS vs control (Sprague–Dawley rats; 90 min biodistribution): increased, albeit non-significant
CNS uptake, spinal cord (Sprague–Dawley rats; PET, rats, i.v.): 0.05–0.1 %ID/g
CNS uptake, whole brain, cortex, olfactory bulb, cerebellum and basal ganglia (Sprague–Dawley rats; PET, rats, i.v.): 0.02–0.07 %ID/g
blood concentration (longitudinal uptake profile) (Sprague–Dawley rats; PET, rats, i.v., blood ROI): 0.05–0.1 %ID/g
brain uptake (visual PET image assessment) (Sprague–Dawley rats; control and 0.5 mg/kg LPS-pre-treated rats): low brain uptake
removal of the radioactivity (excretion route) (Sprague–Dawley rats; rats): predominantly via the urinary route
